This note sets out measurements from US20200392150A1, “Diaryl-B-Lactam Compound and Preparation Method and Pharmaceutical Use Thereof” (Fudan University, priority 2016, published 2020).

The structures appear in SMILES notation. Where two headings read alike, the source gives them in different places.

What all share (assay): In vitro cell growth inhibition assay (MTT)
Holding throughout (type): cell-based, human

The subject of one test is A2780. The settings on record: read-out: IC50 A2780. The protocol: (§1) 5000 tumor cells per well were seeded into 96-well plate and allowed to adhere overnight. Cells were treated with various concentrations of tested compounds or DMSO (0.2%, as negative control) for 48 h. Then, the medium along with tested compounds or DMSO was discarded and […] per well MTT containing medium (0.5 mg/mL) was added. After incubation at 37° C. for 4 h, the MTT-containing medium was replaced by DMSO (150 μL per well) to dissolve the formazan crystals. Absorbance of the resulting solution was measured by microplate reader (Biotech ELx800) at 540 nm wavelength. Growth inhibition rates were calculated with the absorbance. Half maximal inhibitory concentration (IC50) of each compound was calculated using GraphPad Prism, version 6.0.

A further test deals with Hela. The note with it: 48 h, read-out: IC50 Hela. On the procedure: as §1
The test system of a further test is MDA-MB-231. The note with it: read-out: IC50 MDA-MB-231. The protocol: as §1
The next test deals with SKOV3. The note with it: read-out: IC50 SKOV3. The protocol:
as §1

[1] abbreviates: A2780 human ovarian cancer cell line, 48 h, MTT.
The mark [2] stands for this setting: Hela human cervical cancer cell line, MTT.
Where [3] appears, read: MDA-MB-231 human breast cancer cell line, 48 h, MTT.
[4] abbreviates: SK-OV-3, SKOV-3 human ovarian cancer cell line, 48 h, MTT.

`C=C1C(=O)N(c2cc(OC)c(OC)c(OC)c2)[C@H]1c1ccc(OC)c(OCCN(C)C)c1` [Compound 14, (S)-4-(3-(2-(dimethylamino)ethoxy)-4-methoxyphenyl)-3-methylene-1-(3,4,5-trimethoxyphenyl)azetidin-2-one]: the IC50 in the test on A2780 (Homo sapiens, A2780, 48 h) was more than 10 µM; in the test with Hela (Homo sapiens, HeLa) it was more than 10 µM; in the test with MDA-MB-231 (Homo sapiens, MDA-MB-231, 48 h) it was more than 10 µM; in the test with SKOV3 (Homo sapiens, SK-OV-3, 48 h), more than 10 µM.
As for `C=C1C(=O)N(c2cc(OC)c(OC)c(OC)c2)[C@H]1c1ccc(OC)c(OCC(N)=O)c1` [Compound 16, (S)-2-(2-methoxy-5-(3-methylene-4-oxo-1-(3,4,5-trimethoxyphenyl)azetidin-2-yl)phenoxy)acetamide], the IC50 with A2780 (setting [1]) was determined as 0.316 µM; with Hela (setting [2]) it was 0.818 µM; in the test with MDA-MB-231 (setting [3]) it was 0.503 µM; with SKOV3 (setting [4]), 0.698 µM.
Regarding `C=C1C(=O)N(c2cc(OC)c(OC)c(OC)c2)[C@H]1c1ccc(OC)c(OCCCNC(=O)OCc2ccccc2)c1` [Compound 17, (S)-benzyl (3-(2-methoxy-5-(3-methylene-4-oxo-1-(3,4,5-trimethoxyphenyl)azetidin-2-yl)phenoxy)propyl)carbamate], the concentration for half-maximal inhibition (IC50) in the test on A2780 (setting [1]), with Hela (setting [2]), with MDA-MB-231 (setting [3]) and in the test on SKOV3 (setting [4]) was more than 10 µM each time.
For `C=C1C(=O)N(c2cc(OC)c(OC)c(OC)c2)[C@H]1c1ccc(OC)c(OC(=O)c2ccccc2OC)c1` [Compound 21, (S)-2-methoxy-5-(3-methylene-4-oxo-1-(3,4,5-trimethoxyphenyl)azetidin-2-yl)phenyl 2-methoxybenzoate], the IC50 amounted to 0.201 µM in the test with A2780 (setting [1]), 0.106 µM in the test with Hela (setting [2]), 0.218 µM with MDA-MB-231 (setting [3]) and 0.155 µM in the test with SKOV3 (setting [4]).
Turning to `C=C1C(=O)N(c2cc(OC)c(OC)c(OC)c2)[C@H]1c1ccc(OC)c(OS(=O)(=O)c2ccc(C)cc2)c1` [Compound 27, (S)-2-methoxy-5-(3-methylene-4-oxo-1-(3,4,5-trimethoxyphenyl)azetidin-2-yl)phenyl 4-methylbenzenesulfonate], the IC50 with A2780 (setting [1]) worked out at 6.67 µM; in the test on Hela (setting [2]), 17.8 µM; in the test on MDA-MB-231 (setting [3]) it was 12.8 µM; with SKOV3 (setting [4]), 12.1 µM.
For `C=C1C(=O)N(c2cc(OC)c(OC)c(OC)c2)[C@H]1c1ccc(OC)c(OS(=O)(=O)c2ccc(NC(C)=O)cc2)c1` [Compound 30, (S)-2-methoxy-5-(3-methylene-4-oxo-1-(3,4,5-trimethoxyphenyl)azetidin-2-yl)phenyl 4-acetamidobenzenesulfonate] the same measures were 12.2 µM, 15.9 µM, 15.8 µM and 12 µM.
For `C=C1C(=O)N(c2cc(OC)c(OC)c(OC)c2)[C@H]1c1ccc(OC)c(OS(=O)(=O)Cc2ccccc2)c1` [Compound 32, (S)-2-methoxy-5-(3-methylene-4-oxo-1-(3,4,5-trimethoxyphenyl)azetidin-2-yl)phenyl phenylmethanesulfonate] the same measures were 7.34 µM, more than 20 µM, more than 20 µM and 8.66 µM.
For `C=C1C(=O)N(c2cc(OC)c(OC)c(OC)c2)[C@H]1c1ccc(OC)c(OS(=O)(=O)c2ccc(OC)c(OC)c2)c1` [Compound 33, (S)-2-methoxy-5-(3-methylene-4-oxo-1-(3,4,5-trimethoxyphenyl)azetidin-2-yl)phenyl 3,4-dimethoxybenzenesulfonate], the IC50 in the test with A2780 (setting [1]) amounted to 12.3 µM; with Hela (setting [2]), 12.3 µM; with MDA-MB-231 (setting [3]), 13.4 µM; in the test with SKOV3 (setting [4]), 15.2 µM.
`C=C1C(=O)N(c2cc(OC)c(OC)c(OC)c2)[C@H]1c1ccc(OC)c(OC(=O)[C@H](C)NC(=O)OC(C)(C)C)c1` [Compound 35, (S)-2-methoxy-5-((S)-3-methylene-4-oxo-1-(3,4,5-trimethoxyphenyl)azetidin-2-yl)phenyl 2-((tert-butoxycarbonyl)amino)propanoate]: the IC50 with A2780 (setting [1]) was found to be 0.496 µM; in the test with Hela (setting [2]), 0.106 µM; in the test with MDA-MB-231 (setting [3]), 0.496 µM; in the test on SKOV3 (setting [4]), 0.252 µM.
As for `C=C1C(=O)N(c2cc(OC)c(OC)c(OC)c2)[C@H]1c1ccc(OC)c(OC(=O)[C@@H](NC(=O)OC(C)(C)C)C(C)C)c1` [Compound 36, (S)-2-methoxy-5-((S)-3-methylene-4-oxo-1-(3,4,5-trimethoxyphenyl)azetidin-2-yl)phenyl 2-((tert-butoxycarbonyl)amino)-3-methylbutanoate], the IC50 with A2780 (setting [1]) came out at 0.505 µM; in the test on Hela (setting [2]) it was 0.501 µM; with MDA-MB-231 (setting [3]) it was 0.506 µM; with SKOV3 (setting [4]) it was 0.496 µM.
For `C=C1C(=O)N(c2cc(OC)c(OC)c(OC)c2)[C@H]1c1ccc(OC)c(OP(=O)(OCc2ccccc2)OCc2ccccc2)c1` [Compound 37, (S)-dibenzyl (2-methoxy-5-(3-methylene-4-oxo-1-(3,4,5-trimethoxyphenyl)azetidin-2-yl)phenyl) phosphate], in that order: more than 20 µM, more than 20 µM, more than 20 µM and more than 20 µM.
As for `C=C1C(=O)N(c2cc(OC)c(OC)c(OC)c2)[C@H]1c1ccc(OC)c(F)c1` [Compound 38, (S)-4-(3-fluoro-4-methoxyphenyl)-3-methylene-1-(3,4,5-trimethoxyphenyl)azetidin-2-one], the IC50 in the test on A2780 (setting [1]) was 0.121 µM; in the test on Hela (setting [2]) it was 0.131 µM; in the test on MDA-MB-231 (setting [3]) it was 0.111 µM; in the test on SKOV3 (setting [4]), 0.134 µM.
For `C=C1C(=O)N(c2cc(OC)c(OC)c(OC)c2)[C@H]1c1ccc(OC)c(N)c1` [Compound 41, (S)-4-(3-amino-4-methoxyphenyl)-3-methylene-1-(3,4,5-trimethoxyphenyl)azetidin-2-one], the IC50 in the test on A2780 (setting [1]) was determined as 0.031 µM; with Hela (setting [2]), 0.032 µM; in the test with MDA-MB-231 (setting [3]) it was 0.04 µM; with SKOV3 (setting [4]), 0.036 µM.
For `C=C1C(=O)N(c2cc(OC)cc(OC)c2)[C@H]1c1ccc(OC)c(O)c1` [Compound 49, (S)-1-(3,5-dimethoxyphenyl)-4-(3-hydroxy-4-methoxyphenyl)-3-methyleneazetidin-2-one] the same measures were 0.112 µM, 0.295 µM, 0.125 µM and 0.175 µM.
For the molecule `C=C1C(=O)N(c2ccc(OC)cc2OC)[C@H]1c1ccc(OC)c(O)c1` [Compound 50, (S)-1-(2,4-dimethoxyphenyl)-4-(3-hydroxy-4-methoxyphenyl)-3-methyleneazetidin-2-one], the IC50 in the test on A2780 (setting [1]) was 0.234 µM; in the test on Hela (setting [2]) it was 0.894 µM; in the test on MDA-MB-231 (setting [3]) it was 0.291 µM; in the test with SKOV3 (setting [4]), 0.513 µM.
For `COc1ccc([C@H]2/C(=C\C[Si](C)(C)C)C(=O)N2c2cc(OC)c(OC)c(OC)c2)cc1O` [Compound 54, (S,E)-4-(3-hydroxy-4-methoxyphenyl)-1-(3,4,5-trimethoxyphenyl)-3-(2-(trimethylsilyl)ethylidene)azetidin-2-one] the same measures were more than 10 µM, more than 10 µM, more than 10 µM and more than 10 µM.
For `COc1ccc([C@H]2/C(=C/c3ccccc3)C(=O)N2c2cc(OC)c(OC)c(OC)c2)cc1O` [Compound 57, (S,Z)-3-benzylidene-4-(3-hydroxy-4-methoxyphenyl)-1-(3,4,5-trimethoxyphenyl)azetidin-2-one], in that order: 2.54 µM, 4.73 µM, 3.17 µM and 2.99 µM.
With `COc1ccc([C@H]2/C(=C/c3ccc(C(C)(C)C)cc3)C(=O)N2c2cc(OC)c(OC)c(OC)c2)cc1O` [Compound 58, (S,Z)-3-(4-(tert-butyl)benzylidene)-4-(3-hydroxy-4-methoxyphenyl)-1-(3,4,5-trimethoxyphenyl)azetidin-2-one], the IC50 in the test on A2780 (setting [1]), in the test on Hela (setting [2]), in the test with MDA-MB-231 (setting [3]) and in the test with SKOV3 (setting [4]) was more than 20 µM in each case.
As to `COc1ccc([C@H]2[C@@H](CC[Si](C)(C)C)C(=O)N2c2cc(OC)c(OC)c(OC)c2)cc1O` [Compound 59, (3R,4R)-4-(3-hydroxy-4-methoxyphenyl)-1-(3,4,5-trimethoxyphenyl)-3-(2-(trimethylsilyl)ethyl)azetidin-2-one], the IC50 in the test on A2780 (setting [1]) is 7.54 µM; with Hela (setting [2]), 9.14 µM; in the test on MDA-MB-231 (setting [3]), 6.45 µM; in the test with SKOV3 (setting [4]) it was 5.63 µM.
For `COc1ccc([C@H]2[C@H](n3cc(CO)nn3)C(=O)N2c2cc(OC)c(OC)c(OC)c2)cc1O` [Compound 61, (3S,4S)-4-(3-hydroxy-4-methoxyphenyl)-3-(4-(hydroxymethyl)-1H-1,2,3-triazol-1-yl)-1-(3,4,5-trimethoxyphenyl)azetidin-2-one] the same measures were 0.015 µM, 0.033 µM, 0.028 µM and 0.083 µM.
For `COc1ccc([C@H]2[C@@H](CN(C)C)C(=O)N2c2cc(OC)c(OC)c(OC)c2)cc1O` [Compound 62, (3R,4R)-3-((dimethylamino)methyl)-4-(3-hydroxy-4-methoxyphenyl)-1-(3,4,5-trimethoxyphenyl)azetidin-2-one], in that order: 7.72 µM, more than 20 µM, more than 20 µM and more than 20 µM.

One may read the IC50 as the concentration that gives 50% inhibition.
